{"source": "patent US4428942A", "about": "“Analogs of somatostatin” (The Salk Institute for Biological Studies, priority 1982, dated 1984)", "key": {"isolated rabbit ileum": {"tested_on": "isolated rabbit ileum", "experimental": "The analogs are tested in vitro in isolated rabbit ileum using the modified Ussing chamber technique, as described in Amer. J. of Physiol., 225:776-780 (1973). Unidirectional chloride fluxes are determined and used to characterize bi-directional fluxes following the addition of an SS-analog. Changes are measured with varying concentrations, and the potency to inhibit ion transport is quantitated and expressed as a percentage of the potency of SS-14."}, "secretion of insulin": {"tested_on": "secretion of insulin", "settings": "in vivo", "experimental": "(§1) In vivo experiments are carried out with the analogs, using the procedure described in Brown et al., Metabolism (1976) Vol. 25, pp. 1501-1503, to determine the potency, relative to somatostatin-14, to inhibit the secretion of glucagon and insulin stimulated by the administration of arginine to groups of six rats."}, "secretion of glucagon": {"tested_on": "secretion of glucagon", "set-up": "species or system rats", "settings": "in vivo", "experimental": "as §1"}, "[1]": {"tested_on": "release of growth hormone induced by isobutyl methyl xanthine in pituitary cells", "type": "cell-based, rat", "experimental": "To determine the effectiveness of the peptides to inhibit the release of growth hormone, in vitro radioimmunoassays are carried out using the SS analogs in side-by-side comparison with equimolar concentrations of somatostatin-14 having a known effectiveness to inhibit the release of growth hormone induced by the application of isobutyl methyl xanthine to pituitary cells. Cultures are used which include cells of rat pituitary glands removed some four to five days previously in a system that minimizes enzymatic degradation, generally following the procedure set forth in Vale et al., Methods in Enzymology, Hormones and Cyclic Nucleotides (1975) Vol. 37, p. 82. Both cultures of a defined standard medium and cultures which are considered optimal for the secretion of growth hormone, as a result of having additions of either 2% or 10% of serum from a foetal calf, are used for the comparative testing."}, "[2]": {"settings": "isolated rabbit ileum, Ussing chamber, chloride fluxes, SS-14 = 100"}, "[3]": {"settings": "arginine-stimulated, rats, SS-14 = 100"}, "[4]": {"settings": "cultured rat pituitary cells, isobutyl methyl xanthine-induced release, SS-14 = 100"}}, "note": "Where two headings read alike, the source gives them in different places. Bridge positions count the residues as written; N and C are the ends. Peptide text beside a SMILES is read from it.", "data": [{"smiles": "C[C@H](N)C(=O)NCC(=O)N[C@H]1CSSC[C@@H](C(=O)O)NC(=O)[C@H](CO)NC(=O)[C@H]([C@@H](C)O)NC(=O)[C@H](Cc2ccccc2)NC(=O)[C@H]([C@@H](C)O)NC(=O)[C@H](CCCCN)NC(=O)[C@H](Cc2c[nH]c3ccccc23)NC(=O)[C@H](Cc2ccccc2)NC(=O)[C@H](Cc2ccccc2)NC(=O)[C@H](CC(N)=O)NC(=O)[C@@H](CCCCN)NC1=O", "note": "[Peptide 15, [D-Lys^4]--SS]", "values": [{"measurement": "Ion Transport (potency to inhibit ion transport expressed as a percentage of the potency of SS-14)", "setting": "isolated rabbit ileum; [2]", "result": 139, "unit": "%"}, {"measurement": "Insulin (potency to inhibit insulin secretion relative to SS-14)", "setting": "secretion of insulin; [3]", "result": 1, "unit": "%"}, {"measurement": "Glucagon (potency to inhibit glucagon secretion relative to SS-14)", "setting": "secretion of glucagon; [3]", "result": 1, "unit": "%"}, {"measurement": "GH (potency for the inhibition of GH release relative to SS-14)", "setting": "[1]; [4]", "result": 22, "unit": "%"}]}, {"smiles": "C[C@H](N)C(=O)NCC(=O)N[C@H]1CSSC[C@@H](C(=O)O)NC(=O)[C@H]([C@@H](C)O)NC(=O)[C@H](Cc2ccccc2)NC(=O)[C@H]([C@@H](C)O)NC(=O)[C@H](CCCCN)NC(=O)[C@H](Cc2c[nH]c3ccccc23)NC(=O)[C@H](Cc2ccccc2)NC(=O)[C@H](Cc2ccccc2)NC(=O)[C@H](CC(N)=O)NC(=O)[C@H](CCCCN)NC1=O", "note": "[Peptide 14, des-Ser^13 --SS] (H-AGCKNFFWKTFTC-OH; disulfide 3-13)", "values": [{"measurement": "Ion Transport (potency to inhibit ion transport expressed as a percentage of the potency of SS-14)", "setting": "isolated rabbit ileum", "result": 9, "unit": "%"}, {"measurement": "Insulin (potency to inhibit insulin secretion relative to SS-14)", "setting": "secretion of insulin; rat", "result": "< 1", "unit": "%"}, {"measurement": "Glucagon (potency to inhibit glucagon secretion relative to SS-14)", "setting": "secretion of glucagon; rat", "result": "< 1", "unit": "%"}, {"measurement": "GH (potency for the inhibition of GH release relative to SS-14)", "setting": "[1]", "result": 2, "unit": "%"}]}, {"smiles": "C[C@H](N)C(=O)NCC(=O)N[C@H]1CSSC[C@@H](C(=O)O)NC(=O)[C@H](CO)NC(=O)[C@H]([C@@H](C)O)NC(=O)[C@H](Cc2ccccc2)NC(=O)[C@H]([C@@H](C)O)NC(=O)[C@H](CCCCN)NC(=O)[C@H](Cc2c[nH]c3ccccc23)NC(=O)[C@H](Cc2ccccc2)NC(=O)[C@@H](Cc2ccccc2)NC(=O)[C@H](CC(N)=O)NC(=O)[C@H](CCCCN)NC1=O", "note": "[Peptide 16, [D-Phe^6]--SS]", "values": [{"measurement": "Ion Transport (potency to inhibit ion transport expressed as a percentage of the potency of SS-14)", "setting": "isolated rabbit ileum; [2]", "result": 10, "unit": "%"}, {"measurement": "Insulin (potency to inhibit insulin secretion relative to SS-14)", "setting": "secretion of insulin; [3]", "result": "< 1", "unit": "%"}, {"measurement": "Glucagon (potency to inhibit glucagon secretion relative to SS-14)", "setting": "secretion of glucagon; [3]", "result": "< 1", "unit": "%"}, {"measurement": "GH (potency for the inhibition of GH release relative to SS-14)", "setting": "[1]; [4]", "result": 5, "unit": "%"}]}]}
